Molecules are shown by their SMILES. pEC50: −log10 of the molar value.

The term pEC50 denotes the EC50 on a negative log10 scale, so that one unit is a factor of ten.

Data set [1] addresses T1, ovine COX-1 (Ovis aries, UniProt P05979).
T1 sequence (P05979 25-600): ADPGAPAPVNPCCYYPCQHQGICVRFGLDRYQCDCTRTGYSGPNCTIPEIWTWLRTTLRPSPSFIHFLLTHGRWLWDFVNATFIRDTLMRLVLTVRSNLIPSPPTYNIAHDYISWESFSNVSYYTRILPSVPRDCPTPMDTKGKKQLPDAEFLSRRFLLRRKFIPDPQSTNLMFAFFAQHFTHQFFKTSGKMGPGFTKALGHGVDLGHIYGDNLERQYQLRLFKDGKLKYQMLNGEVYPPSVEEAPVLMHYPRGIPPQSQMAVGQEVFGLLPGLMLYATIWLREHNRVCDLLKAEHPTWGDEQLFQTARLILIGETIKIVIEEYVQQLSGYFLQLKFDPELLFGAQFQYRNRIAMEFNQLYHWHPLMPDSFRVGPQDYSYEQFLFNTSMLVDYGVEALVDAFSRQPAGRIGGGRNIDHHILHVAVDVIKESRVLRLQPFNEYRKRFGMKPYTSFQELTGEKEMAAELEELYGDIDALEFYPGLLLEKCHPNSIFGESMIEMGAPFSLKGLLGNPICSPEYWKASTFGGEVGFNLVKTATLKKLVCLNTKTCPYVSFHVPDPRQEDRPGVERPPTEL
Description: Purified COX-1 enzyme inhibition assay. The class given is biochemical.

Data set [2] addresses T2, mouse COX-2 (Mus musculus, UniProt Q05769).
T2 sequence (Q05769 18-604): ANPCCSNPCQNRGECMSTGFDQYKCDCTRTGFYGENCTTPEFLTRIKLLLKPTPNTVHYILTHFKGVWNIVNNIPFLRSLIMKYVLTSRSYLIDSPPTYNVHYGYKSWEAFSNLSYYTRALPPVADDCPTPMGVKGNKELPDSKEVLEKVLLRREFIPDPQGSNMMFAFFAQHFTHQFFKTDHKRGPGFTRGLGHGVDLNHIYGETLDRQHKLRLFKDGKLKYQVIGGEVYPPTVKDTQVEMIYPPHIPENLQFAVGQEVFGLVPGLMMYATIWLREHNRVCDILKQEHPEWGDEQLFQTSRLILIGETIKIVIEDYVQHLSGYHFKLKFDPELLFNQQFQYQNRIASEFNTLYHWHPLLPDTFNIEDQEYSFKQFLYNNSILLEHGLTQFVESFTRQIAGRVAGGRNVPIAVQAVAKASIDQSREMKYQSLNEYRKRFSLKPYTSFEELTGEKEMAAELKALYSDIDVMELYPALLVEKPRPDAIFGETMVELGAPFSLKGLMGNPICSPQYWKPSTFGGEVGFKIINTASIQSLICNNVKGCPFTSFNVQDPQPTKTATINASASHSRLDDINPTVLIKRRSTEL
Description: Purified COX-2 enzyme inhibition assay. The class given is biochemical.

In data set [3] the test system is 1483 HNSCC cells. Description: Cell viability assay. It counts as cell-based, human. The settings on record: 48 h.
In data set [4] the test system is primary human mammary epithelial cells (HMEC). Description: Cell viability assay. It counts as cell-based. The settings on record: 48 h, read-out: EC50 cytostatic effect.
Data set [5] has as its system 1483 HNSCC cells. Description: Reversibility of inhibition of 1483 cell growth. It counts as cell-based, human. As to conditions: 1483 cells.
The subject of data set [6] is 1483 HNSCC xenografts. Description: In vivo tumor growth, 1483 HNSCC xenografts. The settings on record: 1483 xenograft-bearing nude mice, daily intraperitoneal, 14 days.
Data set [7] can be described thus: Animal weight in xenograft-bearing mice. As to conditions: 1483 xenograft-bearing mice, 14 days treatment.

Turning to `COc1cc([C@@H]2c3cc4c(cc3[C@H](O)[C@H]3COC(=O)[C@H]23)OCO4)cc(OC)c1OC` [Podophyllotoxin], the “COX-1 inhibition, in words” value in data set [1] was “inactive”. Besides, the “COX-2 inhibition, in words” value in data set [2] is “inactive”. In data set [3] (1483 cells), the “lowest cell number reached, % of vehicle-treated cultures” value is on record as ~ 35%. The pEC50 was 7.21 in data set [3] (Homo sapiens, read-out: EC50 reduction in cell number) and 6.44 in data set [4]. For the same compound, the “effect of washout on reduction in cell number” value in data set [5] (10 μM for 5 h, washout, further 72 h) is “significant recovery of cell number”. In addition, the “reduction of total cell number” value in data set [5] (10 μM, 72 h) is recorded as ~ 80%. In data set [6], the “effect on tumor growth” value is given as “no effect on tumor size”. Also, the “effect on animal weight” value in data set [7] is “decrease in animal weight”.
